Test: Solubility profile of ruxolitinib phosphate in buffer solutions at 37° C.
Type: physicochemical
Description: Development of stable and palatable oral solution formulation for ruxolitinib is challenging due to pH dependent solubility (see Table 2) of the drug substance with mainly oxidation degradation products at higher temperatures/moisture content and/or in presence of oxygen.

solubility (aqueous buffer, Buffer solution pH 3.3): ≥ 520 µg/mL
solubility (aqueous buffer, Buffer solution pH 4.3): 350 µg/mL
solubility (aqueous buffer, Buffer solution pH 5.3): 290 µg/mL
solubility (aqueous buffer, Buffer solution pH 7.5): 150 µg/mL
solubility (aqueous buffer, Buffer solution pH 8.0): 170 µg/mL
solubility (simulated gastric fluid, Buffer solution pH 1.0): ≥ 540 µg/mL
Structure (SMILES): N#CC[C@H](C1CCCC1)n1cc(-c2ncnc3[nH]ccc23)cn1 [ruxolitinib phosphate]
